The values below come from patent US9486434B2, “Method for delivery and use of isothiocyanates for prophylaxis and/or therapy of bladder cancer” (Health Research Inc., priority 2010, dated 2016).

pIC50: −log10 of the molar value. Where two headings read alike, the source gives them in different places.

The test system of assay [1] is human bladder cancer UM-UC-3 cells. As to the kind of experiment: MTT cell growth and proliferation assay, UM-UC-3 cells. It is filed as cell-based. The settings on record: Homo sapiens, read-out: IC50, inhibition of cell proliferation. Here is the method:
(§1) FIG. 3. The effect of AITC on cell survival and proliferation. AITC was evaluated at the indicated concentrations in human bladder cancer UM-UC-3 cells, rat bladder cancer AY-27 cells, and normal human bladder epithelial cells (HUC). A. Cell growth inhibition, measured by MTT assay, 72-h AITC treatment. IC50 was calculated from nonlinear regression curve fit. B. Cell cycle arrest (□, subG1; ? , G1; ? , 5; ▪, G2/M), measured by flow cytometry, 24 h AITC treatment. C. Apoptosis induction, measured by an ELISA assay, 24 h AITC treatment. Mean±SE, n=3-6), *P<0.05.
(§2) FIG. 10. The effect of NAC-AITC on cell survival and proliferation. NAC-AITC was evaluated in both UM-UC-3 cells and AY-27 cells. (A) Chemical structures of AITC and NAC-AITC. (B) Cell growth and proliferation, measured by 3-([…])-2,5-diphenyltetrazolium bromide assay, 72 h treatment with AITC or NAC-AITC at indicated concentrations. IC50 was calculated from the non-linear regression curve fit. (C) Apoptosis, measured by an enzyme-linked immunosorbent assay, 24 h NAC-AITC treatment at 15 µM. (D) Cell cycle (open bars, G1; shaded bars, S; closed bars, G2/M), measured by flow cytometry, 24 h NAC-AITC treatment at 15 μM. *P<, 0.005, compared with control.
(§3) Assays for cell proliferation, cell cycle arrest and apoptosis. To determine the antiproliferative activity of NAC-AITC, AY-27 cells were grown in 96-well microtiter plates ([…] with 0.15 ml medium per well) for 24 h and then grown for 72 h in fresh medium (0.2 ml/well) containing a series of concentrations of NAC-AITC or solvent. Cell growth was measured at the end of treatment using the 3-([…])-2,5-diphenyltetrazolium bromide assay, from which the half maximal inhibitory concentration (IC50) of NAC-AITC was calculated. AITC was also evaluated for comparison.

The test system of assay [2] is rat bladder cancer AY-27 cells. As to the kind of experiment: MTT cell growth and proliferation assay, AY-27 cells. It is filed as cell-based. The settings on record: Rattus norvegicus, read-out: IC50, inhibition of cell proliferation. How it is done: as §1, §2, §3
Assay [3] has as its system AY-27 cells. As to the kind of experiment: Cell cycle arrest by flow cytometry, AY-27 cells. It is filed as cell-based, rat. The note with it: 24 h. How it is done:
as §1, §2
The effect of NAC-AITC on cell cycle progression was measured by flow cytometry as described previously. Briefly, 1.5×10^6 AY-27 cells were grown in each 10-cm plate with 10 ml medium for 24 h and then treated with NAC-AITC or solvent for 24 h before analysis. Induction of apoptosis by NAC-AITC was measured using the Cell Death Detection ELISA^plus kit (Roche Diagnostics, Indianapolis, Ind.), following the manufacturer's instruction. […] At the end of treatment, the cells were treated with lysis buffer, and after a low-speed centrifugation, a portion of the supernatant fraction was used for spectroscopic measurement (expressed as A405-490 nm) of cytoplasmic levels of histone-associated mononucleosomes or oligonucleosomes by an enzyme-linked immunosorbent assay. […]
A general note: Flow cytometry measures light scatter and fluorescence of single cells or particles in a stream.

For assay [4], the system named is AY-27 cells. As to the kind of experiment: Apoptosis induction ELISA (histone-associated DNA), AY-27 cells. It is filed as cell-based, rat. The settings on record: 24 h. Here is the method: as §1, §2
The effect of NAC-AITC on cell cycle progression was measured by flow cytometry as described previously. […]
For orientation: ELISA stands for enzyme-linked immunosorbent assay.

Assay [5] deals with caspase-3, α-tubulin, β-tubulin, VEGF in AY-27 cells. As to the kind of experiment: Western blotting in cultured AY-27 cells. It is filed as cell-based, rat. The settings on record: NAC-AITC 7.5 and 15 μM, 24 h. Here is the method:
FIG. 8. Inhibition of bladder cancer development by MSP-1. Female F344 rats were inoculated with AY-27 cells intravesically via a urethra catheter to initiate development of orthotopic bladder cancer. Oral administration of MSP-1 of vehicle (water) once daily was started 1 day after cancer cell inoculation and ended 3 weeks later. The number of rats per group varied from 11-29. A. Initial (□) and final (▪) body weights. B. Tumor weight was calculated by subtracting the average normal bladder weight from tumor-bearing bladder weight. *P<0.05. Each value in A and B is mean±SEM. C. Percentage of bladder where the tumor invaded the muscle tissue. D. The effects of MSP-1 on selected anticancer targets in UM-UC-3 cells (in vitro), AY-27 cells (in vitro) and AY-27 tumors (in vivo). The cells were treated with MSP-1 at the sinigrin concentrations of 13 and 26 microM for 24 h. The bladder tumors were removed from rats treated with MSP-1 at the sinigrin doses of 9 or 90 micromols/kg once daily for 3 weeks, started 1 day after cancer cell inoculation. Cell lysates and tumor homogenates were analyzed by Western blotting, using GAPDH as a loading control.
FIG. 13. Molecular targets of NAC-AITC in bladder cancer. AY-27 cells in culture were treated with NAC-AITC for 24 h. The results are representative of at least two experiments. The bladder tumors were removed from rats, which were treated with NAC-AITC orally at 10 μmol/kg once daily for 3 weeks, starting 1 day after intravesicular inoculation of AY-27 cells. The results are representative of three to five tumors assayed in each group. Cell lysates and tumor tissue homogenates were analyzed by western blot analysis, using GAPDH as a loading control.
Western blot analysis. Cells after harvest were washed with ice-cold phosphate-buffered saline, suspended in radioimmunoprecipitation assay lysis buffer supplemented with a protease inhibitor cocktail (Sigma-Aldrich) and further lysed by sonication. […]
On the technique in general: Immunoblotting shows a protein as a band on a membrane.

With `C=CCN=C=S` [AITC, allyl isothiocyanate], the pIC50 was 5.57 in assay [1] (UMUC3, 72 h) and 5.48 in assay [2] (AY-27, 72 h). Also, the “cells in G2/M phase” value in assay [3] (AITC 7.5-15 microM, control 9.9-11.5%) was no more than 49%. In addition, the “increase in subG1 population” value in assay [3] (AITC) is no more than 7.8 fold. Moreover, the “increase in cytoplasmic levels of histone-associated DNA” value in assay [4] (AITC) is given as no more than 5.2 fold.

In the case of `C=CCNC(=S)SC[C@H](NC(C)=O)C(=O)O` [NAC-AITC, N-acetyl-S—(N-allylthiocarbamoyl)cysteine], the pIC50 in assay [1] (UMUC3, Example 9, 72 h treatment) is 5.13. The pIC50 in assay [2] (AY-27, Example 9, 72 h treatment) is 5.04. Also, in assay [3] (NAC-AITC 15 µM, control 11-12%), the “cells in G2/M phase” value is on record as 45%. Moreover, the “increase in apoptotic activity” value in assay [4] (15 μM) amounted to 10.6 fold. In assay [5], the VEGF level entry is on record as “downregulation”; the caspase-3 cleavage/activation result was “dose-dependent cleavage/activation”; the “α-tubulin and β-tubulin levels” value was “downregulation”.
